From ChEMBL document CHEMBL5104209 (RSC Med Chem, 2022)
Calls of active or inactive are those of the source. The calls are words filed in the database; no cut-off is given here.

Experiments:
[1] = Binding affinity to human His-tagged PAK4 (300 to 591 residues) L301A mutant expressed in Escherichia coli BL21 (DE3)pLysS by surface plasmon resonance assay
Homo sapiens = species on record: Homo sapiens; experiment: Binding affinity to human His-tagged PAK4 (300 to 591 residues) L301A mutant expressed in Escherichia coli BL21 (DE3)pLysS in presence of staurosporine by ligand observed NMR competitive assay

Activity (Homo sapiens)	SMILES	Kd [1]
–	NS(=O)(=O)c1cccc2cnccc12	300 µM
Active	CNC(=O)c1cnn2ccc(C#N)cc12	–
–	Nc1cccc2ncccc12	510 µM
–	c1c(Nc2nc(N3CCCCC3)nc3[nH]ncc23)n[nH]c1C1CC1	0.05 µM
